Assay results published in patent publication US20150374680A1, “POCHOXIME CONJUGATES USEFUL FOR THE TREATMENT OF HSP90 RELATED PATHOLOGIES” (UNIVERSITE DE STRASBOURG, priority 2010, published 2015).

Experiments:
[1] = system: HSP90 client protein in SKBR3 cell lines; conditions: earlier work of the inventors; cited from earlier work
BT474 breast tumor cells = conditions: xenografts bearing BT474 breast tumor cells; earlier work of the inventors; cited from earlier work
N87 = assay: Proliferation assay in N87; format: cell-based; conditions: N87, Gastric (Her2+)
Protocol: (§1) The compounds were dissolved in 100% DMSO to make 10 mM stock solutions. HER2+BT474 breast carcinoma cells were cultured in DMEM/F12 media, supplemented with 10% FBS. Log-phase growing BT474 cells were seeded in 96 well plates at 1.5×10E4 per well. At this cell density, BT474 is expected to reach confluency about 70-80% in 3 days. Different dilutions of compounds or vehicle in 200 μl (concentration range 0.004-10 μM) were added to the cells and incubated for 72 hours. Upon completion of the incubation, media were gently removed by suction and 100 μl of ATPlite solution (Perkin Elmer) was added in each well. Viable cells were measured by detecting luminescence generated from reaction of ATPlite solution and ATP in the cells using a 96-well microplate luminescence reader. Relative luminescence light unit is correlated to the amount of ATP in viable cells. The assays were performed in duplicates. IC50 was calculated using XLfit. The IC50 shown in Table 4 below is the average IC50 from three independent experiments.
(§2) Additional proliferation assays were performed for certain exemplified compounds using the methods similar to the one described above in multiple cancer cell lines.

PC3 = assay: Proliferation assay in PC3; format: cell-based; conditions: Homo sapiens, PC-3, PC3, Prostate
Protocol: as §1, §2

HCT116 = assay: Proliferation assay in HCT116; format: cell-based; conditions: Homo sapiens, HCT-116, HCT116, Colon
Protocol: as §1, §2

NCI-H2228 = assay: Proliferation assay in NCI-H2228; format: cell-based; conditions: Homo sapiens, NCI-H2228, Lung (EML4-ALK+)
Protocol: as §1, §2

H23 = assay: Proliferation assay in H23; format: cell-based; conditions: Homo sapiens, NCI-H23, H23, Lung
Protocol: as §1, §2

HCC1569 = assay: Proliferation assay in HCC1569; format: cell-based; conditions: Homo sapiens, HCC1569, Breast (Her2+; Her2i res)
Protocol: as §1, §2

HCC827 = assay: Proliferation assay in HCC827; format: cell-based; conditions: Homo sapiens, HCC827, Lung (EGFR mut)
Protocol: as §1, §2

RPM18226 = assay: Proliferation assay in RPM18226; format: cell-based; conditions: RPM18226, Multiple myeloma
Protocol: as §1, §2

HT29 = assay: Proliferation assay in HT29; format: cell-based; conditions: Homo sapiens, HT-29, HT29, Colon
Protocol: as §1, §2

SKOV-3 = assay: Proliferation assay in SKOV-3; format: cell-based; conditions: Homo sapiens, SK-OV-3, SKOV-3, Ovarian (Her2+)
Protocol: as §1, §2

A498 = assay: Proliferation assay in A498; format: cell-based; conditions: Homo sapiens, A498, Renal (VHL mut)
Protocol: as §1, §2

H1975 = assay: Proliferation assay in H1975; format: cell-based; conditions: Homo sapiens, NCI-H1975, H1975, Lung (EGFR mut)
Protocol: as §1, §2

H460 = assay: Proliferation assay in H460; format: cell-based; conditions: Homo sapiens, NCI-H460, H460, Lung
Protocol: as §1, §2

SMILES	Concentration inducing client protein degradation [1]	Effect on tumor in xenografts (BT474 breast tumor cells)	IC50 (N87)	IC50 (PC3)	IC50 (HCT116)	IC50 (NCI-H2228)	IC50 (H23)	IC50 (HCC1569)	IC50 (HCC827)	IC50 (RPM18226)	IC50 (HT29)	IC50 (SKOV-3)	IC50 (A498)	IC50 (H1975)	IC50 (H460)
O=C1OCC/C=C/CC/C=C/C(=N/OCC(=O)N2CCCCC2)Cc2c(Cl)c(O)cc(O)c21 [pochoxime A]	low nM	tumor regression													
C[C@@H]1C/C=C/[C@@H](N)C/C=C/C(=N/OCC(=O)N2CCCCC2)Cc2cc(O)cc(O)c2C(=O)O1 [As-13(6S)-E]			7 nM	44 nM	76 nM	87 nM	41 nM	140 nM	79 nM	46 nM	33 nM	33 nM	180 nM	37 nM	33 nM
C[C@@H]1C/C=C/[C@@H](N)C/C=C/C(=N\OCC(=O)N2CCCCC2)Cc2cc(O)cc(O)c2C(=O)O1 [As-13(6S)-Z]			12 nM	82 nM	101 nM	139 nM		175 nM	105 nM	72 nM	92 nM		166 nM	51 nM	
